Data as given in article PMC12028158, “Synthesis and In Vitro Evaluation of the Anticancer Effect of Novel Phosphonium Vindoline Derivatives” (International Journal of Molecular Sciences, 2025).
Like-named read-outs stand apart in the source and are kept apart here.

Legend:
Type in all cases: cell-based
[1] = tested on: U251; experiment: NCI60 five-dose screen; conditions: Homo sapiens
[2] = tested on: SR; experiment: NCI60 five-dose screen; conditions: Homo sapiens
[3] = tested on: 786-0; experiment: NCI60 one-dose screen; conditions: Homo sapiens
[4] = tested on: K-562; experiment: NCI60 one-dose screen; conditions: Homo sapiens
[5] = tested on: A498; experiment: NCI60 one-dose screen; conditions: Homo sapiens
[6] = tested on: BT-549; experiment: NCI60 five-dose screen; conditions: Homo sapiens
[7] = tested on: NCI-H226; experiment: NCI60 five-dose screen; conditions: Homo sapiens
[8] = tested on: UACC-257; experiment: NCI60 one-dose screen; conditions: Homo sapiens
[9] = tested on: SNB-75; experiment: NCI60 one-dose screen; conditions: Homo sapiens
[10] = tested on: M14; experiment: NCI60 five-dose screen; conditions: Homo sapiens
[11] = tested on: NCI/ADR-RES; experiment: NCI60 five-dose screen; conditions: Homo sapiens
[12] = tested on: SN12C; experiment: NCI60 five-dose screen; conditions: Homo sapiens
[13] = tested on: CAKI-1; experiment: NCI60 five-dose screen; conditions: Homo sapiens
[14] = tested on: A549/ATCC; experiment: NCI60 one-dose screen; conditions: Homo sapiens
[15] = tested on: MDA-MB-231/ATCC; experiment: NCI60 one-dose screen; conditions: Homo sapiens
[16] = tested on: UACC-62; experiment: NCI60 one-dose screen; conditions: Homo sapiens
[17] = tested on: TK-10; experiment: NCI60 one-dose screen; conditions: Homo sapiens
[18] = tested on: OVCAR-5; experiment: NCI60 five-dose screen; conditions: Homo sapiens
[19] = tested on: HOP-92; experiment: NCI60 one-dose screen; conditions: Homo sapiens
[20] = tested on: HS 578T; experiment: NCI60 five-dose screen; conditions: Homo sapiens
[21] = tested on: NCI-H322M; experiment: NCI60 five-dose screen; conditions: Homo sapiens
[22] = tested on: HS 578T; experiment: NCI60 one-dose screen; conditions: Homo sapiens, read-out: Growth percent
[23] = tested on: SF-268; experiment: NCI60 five-dose screen; conditions: Homo sapiens
[24] = tested on: PC-3; experiment: NCI60 one-dose screen; conditions: Homo sapiens
[25] = tested on: 60 human tumor cell lines (NCI60); experiment: NCI60 five-dose screen, overall mean
[26] = tested on: K-562; experiment: NCI60 five-dose screen; conditions: Homo sapiens, K562
[27] = tested on: CCRF-CEM; experiment: NCI60 one-dose screen; conditions: Homo sapiens, read-out: Growth percent
[28] = tested on: SK-OV-3; experiment: NCI60 one-dose screen; conditions: Homo sapiens
[29] = tested on: MDA-MB-468; experiment: NCI60 one-dose screen; conditions: Homo sapiens
[30] = tested on: T-47D; experiment: NCI60 one-dose screen; conditions: Homo sapiens, T47D, read-out: Growth percent
[31] = tested on: MOLT-4; experiment: NCI60 one-dose screen; conditions: Homo sapiens
[32] = tested on: HCC-2998; experiment: NCI60 five-dose screen; conditions: Homo sapiens
[33] = tested on: COLO 205; experiment: NCI60 five-dose screen; conditions: Homo sapiens
[34] = tested on: A549/ATCC; experiment: NCI60 five-dose screen; conditions: Homo sapiens

Structure (SMILES): CC[C@]12C=CCN3CC[C@@]4(c5ccc(OC)cc5N(C)[C@H]4[C@@](O)(C(=O)OC)[C@@H]1OC(=O)CCCC[P+](c1ccc(F)cc1)(c1ccc(F)cc1)c1ccc(F)cc1)[C@@H]32 [10c]
- GI50 ([1]; U-251, U251, CNS Cancer, read-out: GI50): 10.7 µM
- GI50 ([2]; Leukemia, read-out: GI50): 14.5 µM
- activity at 10 µM ([3]; 786-0, 10 μM, one-dose, read-out: Growth percent): 87%
- activity at 10 µM ([4]; K562, K-562, 10 μM, one-dose, read-out: Growth percent): 17.1%
- activity at 10 µM ([5]; A498, 10 μM, one-dose, read-out: Growth percent): 99.2%
- GI50 ([6]; BT-549, Breast Cancer, read-out: GI50): 12.9 µM
- GI50 ([7]; NCI-H226, Non-small Cell Lung Cancer, read-out: GI50): 27.3 µM
- activity at 10 µM ([8]; UACC-257, 10 μM, one-dose, read-out: Growth percent): -50.7%
- activity at 10 µM ([9]; SNB-75, 10 μM, one-dose, read-out: Growth percent): -5.3%
- GI50 ([10]; M14, Melanoma, read-out: GI50): 14.7 µM
- GI50 ([11]; Ovarian Cancer, read-out: GI50): > 100 µM
- GI50 ([12]; Renal Cancer, read-out: GI50): 28.6 µM
- GI50 ([13]; CAKI-1, Renal Cancer, read-out: GI50): > 100 µM
- activity at 10 µM ([14]; A549/ATCC, 10 μM, one-dose, read-out: Growth percent): 37.5%
- activity at 10 µM ([15]; MDA-MB-231/ATCC, 10 μM, one-dose, read-out: Growth percent): 2.85%
- activity at 10 µM ([16]; UACC-62, 10 μM, one-dose, read-out: Growth percent): -69.6%
- activity at 10 µM ([17]; TK-10, 10 μM, one-dose, read-out: Growth percent): 70.2%
- GI50 ([18]; OVCAR-5, Ovarian Cancer, read-out: GI50): 29.1 µM
- activity at 10 µM ([19]; HOP-92, 10 μM, one-dose, read-out: Growth percent): -12.2%
- GI50 ([20]; HS 578T, Breast Cancer, read-out: GI50): 16.9 µM
- GI50 ([21]; Non-small Cell Lung Cancer, read-out: GI50): 50 µM
- activity at 10 µM ([22]; HS 578T, 10 μM, one-dose): -2.23%
- GI50 ([23]; SF-268, CNS Cancer, read-out: GI50): 17.6 µM
- activity at 10 µM ([24]; PC-3, 10 μM, one-dose, read-out: Growth percent): 15.7%
- GI50 ([25]; mean over all 60 human cancer cell lines, read-out: GI50 Mean): 24.9 µM
- GI50 ([26]; K-562, Leukemia, read-out: GI50): 11.3 µM
- activity at 10 µM ([27]; 10 μM, one-dose): 19.9%
- activity at 10 µM ([28]; SK-OV-3, 10 μM, one-dose, read-out: Growth percent): 41.4%
- activity at 10 µM ([29]; MDA-MB-468, 10 μM, one-dose, read-out: Growth percent): -74.6%
- activity at 10 µM ([30]; T-47D, 10 μM, one-dose): 12.8%
- activity at 10 µM ([31]; MOLT-4, 10 μM, one-dose, read-out: Growth percent): 29.1%
- GI50 ([32]; HCC-2998, Colon Cancer, read-out: GI50): 12.5 µM
- GI50 ([33]; COLO 205, COLO 205, Colon Cancer, read-out: GI50): 4.63 µM
- GI50 ([34]; A549/ATCC, Non-small Cell Lung Cancer, read-out: GI50): 33.8 µM

Structure (SMILES): CC[C@]12C=CCN3CC[C@@]4(c5ccc(OC)cc5N(C)[C@H]4[C@@](O)(C(=O)OC)[C@@H]1OC(=O)CCCC[P+](C1CCCCC1)(C1CCCCC1)C1CCCCC1)[C@@H]32 [10d]
- GI50 ([1]; U-251): 0.64 µM
- GI50 [2]: 1.39 µM
- activity at 10 µM ([3]; 786-0, read-out: Growth percent): -36%
- activity at 10 µM ([4]; K562, read-out: Growth percent): 7.48%
- activity at 10 µM ([5]; A498, read-out: Growth percent): -0.04%
- GI50 ([6]; BT-549): 2.45 µM
- GI50 ([7]; NCI-H226): 4.41 µM
- activity at 10 µM ([8]; UACC-257, read-out: Growth percent): -82.1%
- activity at 10 µM ([9]; SNB-75, read-out: Growth percent): -81.4%
- GI50 ([10]; M14): 2.2 µM
- GI50 [11]: 65.5 µM
- GI50 [12]: 2.77 µM
- GI50 ([13]; CAKI-1): 16.7 µM
- activity at 10 µM ([14]; A549, read-out: Growth percent): 11.7%
- activity at 10 µM ([15]; MDA-MB-231, read-out: Growth percent): -92.8%
- activity at 10 µM ([16]; UACC-62, read-out: Growth percent): -96.9%
- activity at 10 µM ([17]; TK-10, read-out: Growth percent): -64.1%
- GI50 ([18]; OVCAR-5): 3.19 µM
- activity at 10 µM ([19]; HOP-92, read-out: Growth percent): -44.5%
- GI50 ([20]; Hs-578T): 2.61 µM
- GI50 [21]: 5.3 µM
- activity at 10 µM ([22]; Hs-578T): -35%
- GI50 ([23]; SF-268): 3.17 µM
- activity at 10 µM ([24]; PC-3, read-out: Growth percent): 3.69%
- GI50 ([25]; read-out: GI50 Mean, mean over all 60 human cancer cell lines): 4.29 µM
- GI50 [26]: 0.983 µM
- activity at 10 µM [27]: -60.2%
- activity at 10 µM ([28]; SK-OV-3, read-out: Growth percent): -22.2%
- activity at 10 µM ([29]; MDA-MB-468, read-out: Growth percent): -79%
- activity at 10 µM [30]: 3.83%
- activity at 10 µM ([31]; MOLT-4, read-out: Growth percent): -5.16%
- GI50 ([32]; HCC 2998): 1.31 µM
- GI50 ([33]; COLO 205): 0.377 µM
- GI50 ([34]; A549): 3.13 µM
